Results on 1 compound are retold here after publication PMC4700268 (Frontiers in Pharmacology, 2016).

Assay [1] addresses T1, hCNT3 (Homo sapiens, UniProt Q9HAS3).
T1 sequence (Q9HAS3 1-691): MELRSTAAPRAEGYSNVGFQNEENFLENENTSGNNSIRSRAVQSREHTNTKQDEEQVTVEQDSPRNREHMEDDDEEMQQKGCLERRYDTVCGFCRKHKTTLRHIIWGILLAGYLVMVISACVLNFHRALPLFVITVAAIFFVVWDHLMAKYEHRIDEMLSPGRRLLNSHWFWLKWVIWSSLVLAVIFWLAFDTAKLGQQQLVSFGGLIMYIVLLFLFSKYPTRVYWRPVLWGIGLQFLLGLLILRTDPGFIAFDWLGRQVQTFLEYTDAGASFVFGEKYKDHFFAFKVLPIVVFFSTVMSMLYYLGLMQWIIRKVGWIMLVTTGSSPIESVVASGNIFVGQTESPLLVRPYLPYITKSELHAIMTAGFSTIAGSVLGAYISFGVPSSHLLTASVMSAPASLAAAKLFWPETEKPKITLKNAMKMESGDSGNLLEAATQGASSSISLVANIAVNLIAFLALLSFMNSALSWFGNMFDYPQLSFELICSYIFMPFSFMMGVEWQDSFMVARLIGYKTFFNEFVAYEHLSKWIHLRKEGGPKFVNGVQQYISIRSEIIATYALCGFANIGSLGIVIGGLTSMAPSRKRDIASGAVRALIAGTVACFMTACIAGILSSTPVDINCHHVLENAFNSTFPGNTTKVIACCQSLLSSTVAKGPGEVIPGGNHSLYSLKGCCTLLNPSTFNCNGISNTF
Description: Inhibition of [3H]uridine uptake in hCNT3 transfected MDCK II cells. Format: in vitro ADME. More on the design: host or cells: MDCK II cells, transient transfection. Particulars: 1 μM [3H]uridine, MDCK II cells transiently transfected with hCNT3, 2 min, 37°C; read-out: IC50, inhibition of hCNT3 mediated transport. How it is done:
(§1) Inhibitory transport assays were carried out in 24-well plates as described previously ([Mandikova et al., 2013]). Transport assays in HeLa cells transiently transfected with the hOAT1 expression construct were performed 48 h after transfection. Transport assays in MDCK II cells transiently transfected with hOCT2, hCNT2 or hCNT3 were performed 24 h after transfection. The cultivation medium was removed and the cells were washed with transport solution and preincubated for 10 min at 37°C. The standard radiolabeled substrate or tested radioactive antiviral substance dissolved in transport solution was added to the cells and incubated for 2 min. [^3H]PAH (1 μM) was used as a prototypical substrate for OATs, [^3H]MPP^+ (1 μM) for OCTs and [^3H]uridine (1 μM) for CNTs. […] After the designated time period, the incubation was stopped by washing the cells twice with ice-cold solution containing 137 mM NaCl and 10 mM HEPES, pH 7.4. The cells were disintegrated with 0.1 mL of Triton X 0.5% in 100 mM NaOH for 1 h.
IC50 values were calculated using non-linear regression analysis using GraphPad Prism software (version 6).

Another assay concerns the target T2, hOCT2 (Homo sapiens, UniProt O15244).
T2 construct: host or cells: MDCK II cells, transient transfection
T2 sequence (O15244 1-555): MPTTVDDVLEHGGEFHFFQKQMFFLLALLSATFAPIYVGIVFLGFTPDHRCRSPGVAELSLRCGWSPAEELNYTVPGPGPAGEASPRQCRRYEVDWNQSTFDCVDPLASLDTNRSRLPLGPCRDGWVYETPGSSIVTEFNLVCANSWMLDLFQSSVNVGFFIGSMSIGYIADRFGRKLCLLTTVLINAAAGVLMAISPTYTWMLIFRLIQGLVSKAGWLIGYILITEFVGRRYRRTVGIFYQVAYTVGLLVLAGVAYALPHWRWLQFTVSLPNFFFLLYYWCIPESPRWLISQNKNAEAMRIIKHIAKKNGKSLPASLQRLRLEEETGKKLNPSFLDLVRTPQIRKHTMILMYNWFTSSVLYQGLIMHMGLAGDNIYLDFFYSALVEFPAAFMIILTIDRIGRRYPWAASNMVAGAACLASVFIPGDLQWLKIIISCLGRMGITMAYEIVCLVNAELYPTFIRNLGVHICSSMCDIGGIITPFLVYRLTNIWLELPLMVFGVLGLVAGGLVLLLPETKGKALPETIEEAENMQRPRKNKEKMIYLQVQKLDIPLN
Description: Inhibition of [3H]MPP+ uptake in hOCT2 transfected MDCK II cells. Particulars: 1 μM [3H]MPP+, ETV 0–2000 μM, 2 min. Format: in vitro ADME. Here is the method: as §1, with “min.” for “min. [^3H]PAH (1 μM) was used as a prototypical substrate for OATs, [^3H]MPP^+ (1 μM) for OCTs and [^3H]uridine (1 μM) for CNTs.”, “h. […] IC50 values were calculated using non-linear regression analysis using GraphPad Prism software (version 6).” for “h.”

For the next assay, the target named is T3, hOAT1 (Homo sapiens, UniProt Q4U2R8).
T3 sequence (Q4U2R8 1-563): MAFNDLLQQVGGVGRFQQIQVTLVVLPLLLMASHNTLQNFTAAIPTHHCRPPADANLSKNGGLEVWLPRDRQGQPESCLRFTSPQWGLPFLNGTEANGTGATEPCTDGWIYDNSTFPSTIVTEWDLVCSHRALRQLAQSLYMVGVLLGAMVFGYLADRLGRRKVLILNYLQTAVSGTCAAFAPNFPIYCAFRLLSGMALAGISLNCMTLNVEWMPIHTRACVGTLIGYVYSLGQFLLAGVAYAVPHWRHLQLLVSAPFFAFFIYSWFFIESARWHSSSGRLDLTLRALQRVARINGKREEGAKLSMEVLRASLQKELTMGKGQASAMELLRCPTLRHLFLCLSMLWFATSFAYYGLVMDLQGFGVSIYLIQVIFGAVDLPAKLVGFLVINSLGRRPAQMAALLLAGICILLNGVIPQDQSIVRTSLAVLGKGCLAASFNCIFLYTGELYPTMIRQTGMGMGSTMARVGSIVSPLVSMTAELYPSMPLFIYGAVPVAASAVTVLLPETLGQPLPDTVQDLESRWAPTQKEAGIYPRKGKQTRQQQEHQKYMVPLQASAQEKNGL
Description: Inhibition of [3H]PAH uptake in hOAT1 transfected HeLa cells. Format: in vitro ADME. Also noted: host or cells: HeLa cells, transient transfection. The following applies: 1 μM [3H]PAH, HeLa cells transiently transfected with hOAT1, 2 min, 37°C; read-out: IC50, inhibition of hOAT1 mediated transport. How it is done:
as §1, with “min.” for “min. [^3H]PAH (1 μM) was used as a prototypical substrate for OATs, [^3H]MPP^+ (1 μM) for OCTs and [^3H]uridine (1 μM) for CNTs.”, “h. […] IC50 values were calculated using non-linear regression analysis using GraphPad Prism software (version 6).” for “h.”

For assay [2], the target named is T1, hCNT3. Description: [3H]ETV uptake in hCNT3 transfected cells. Particulars: 5 min, 37°C.

Consider `C=C1[C@H](CO)[C@@H](O)C[C@@H]1n1cnc2c(=O)[nH]c(N)nc21` [ETV, Entecavir], for which the IC50 on hCNT3 [1] came out at 278 µM; at hOAT1, 175 µM. The “Inhibitory interaction with hOCT2” value at hOCT2 is “No interaction”. In addition, the “Vmax of [3H]ETV uptake by hCNT3” value at hCNT3 [2] was 45.84 nmol/mg protein/5 min.

As a reminder, the IC50 is the midpoint of a concentration-inhibition curve.
